Test results taken from patent US12162890B2 (Novartis AG, priority 2015, dated 2024).

biological target: HEK293 cells with stable expression of the GRIN1 gene and tetracycline-inducible expression of the GRIN2B gene (NMDA receptor, NR2B) (Homo sapiens, UniProt Q13224); assay: Fluo-8 Ca2+ flux assay: reversal of Ro 25-6981-mediated suppression of the Ca2+ response to co-agonist (glutamate/glycine); format: cell-based; details: reversal of the Ro 25-6981 suppression of the Ca2+ response to co-agonist (glutamate/glycine); note: test concentration or dose not given here
Sequence (Q13224 27-1484, other chains not shown): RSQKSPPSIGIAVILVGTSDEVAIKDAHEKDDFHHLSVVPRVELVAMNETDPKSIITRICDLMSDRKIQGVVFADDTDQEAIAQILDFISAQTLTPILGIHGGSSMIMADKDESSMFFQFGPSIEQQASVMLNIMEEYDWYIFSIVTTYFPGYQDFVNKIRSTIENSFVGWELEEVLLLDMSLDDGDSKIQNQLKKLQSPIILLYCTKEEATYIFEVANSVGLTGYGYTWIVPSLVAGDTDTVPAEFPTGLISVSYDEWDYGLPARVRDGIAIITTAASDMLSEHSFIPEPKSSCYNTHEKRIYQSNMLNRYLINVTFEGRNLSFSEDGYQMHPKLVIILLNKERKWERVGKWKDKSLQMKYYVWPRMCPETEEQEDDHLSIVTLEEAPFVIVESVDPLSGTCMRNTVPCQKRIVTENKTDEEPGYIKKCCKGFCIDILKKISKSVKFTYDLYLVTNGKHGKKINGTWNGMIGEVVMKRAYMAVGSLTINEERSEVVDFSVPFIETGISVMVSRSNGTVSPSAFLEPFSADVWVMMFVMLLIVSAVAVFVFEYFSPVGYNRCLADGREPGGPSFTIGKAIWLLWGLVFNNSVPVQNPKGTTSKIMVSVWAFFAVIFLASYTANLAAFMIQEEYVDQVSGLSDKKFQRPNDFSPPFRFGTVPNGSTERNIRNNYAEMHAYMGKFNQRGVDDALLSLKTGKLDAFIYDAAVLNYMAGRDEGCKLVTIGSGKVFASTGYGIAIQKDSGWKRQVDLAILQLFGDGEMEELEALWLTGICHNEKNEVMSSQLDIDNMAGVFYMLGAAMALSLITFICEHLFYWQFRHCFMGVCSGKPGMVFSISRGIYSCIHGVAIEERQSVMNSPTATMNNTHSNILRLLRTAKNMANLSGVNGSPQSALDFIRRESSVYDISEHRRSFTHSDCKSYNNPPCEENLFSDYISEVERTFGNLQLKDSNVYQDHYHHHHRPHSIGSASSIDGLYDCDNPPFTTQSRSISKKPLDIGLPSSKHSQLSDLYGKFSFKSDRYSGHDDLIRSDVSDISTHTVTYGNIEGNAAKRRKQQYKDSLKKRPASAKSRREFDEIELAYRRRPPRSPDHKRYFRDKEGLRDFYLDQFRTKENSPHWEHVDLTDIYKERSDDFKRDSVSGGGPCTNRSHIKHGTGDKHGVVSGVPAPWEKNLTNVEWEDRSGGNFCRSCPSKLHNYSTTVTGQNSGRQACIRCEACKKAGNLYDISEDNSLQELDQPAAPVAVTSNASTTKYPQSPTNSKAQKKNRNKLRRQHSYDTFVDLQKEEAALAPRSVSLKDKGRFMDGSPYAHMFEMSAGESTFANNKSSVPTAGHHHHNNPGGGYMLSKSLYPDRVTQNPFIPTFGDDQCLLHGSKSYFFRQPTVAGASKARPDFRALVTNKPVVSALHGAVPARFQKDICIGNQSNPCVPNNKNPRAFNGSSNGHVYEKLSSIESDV

Compound	Response Recovered (%)
CC(C)(O)Cn1cc(-c2ccc(F)c(C(F)(F)F)c2)c2c(=O)n(CC(=O)N3CCC(F)C3)ccc21 (centres unmarked) [Example 257, 3-(4-fluoro-3-(trifluoromethyl)phenyl)-5-(2-(3-fluoropyrrolidin-1-yl)-2-oxoethyl)-1-(2-hydroxy-2-methylpropyl)-1H-pyrrolo[3,2-c]pyridin-4(5H)-one]	20
O=C(Cn1ccc2scc(-c3ccc(F)c(C(F)(F)F)c3)c2c1=O)N1CC(F)(c2ccccc2)C1 [Example 54, 3-(4-fluoro-3-(trifluoromethyl)phen-yl)-5-(2-(3-fluoro-3-phenylazetidin-1-yl)-2-oxoethyl)thieno[3,2-c]pyridin-4(5H)-one]	17
Cn1cc(-n2cc(-c3ccc(F)c(Cl)c3)c3c(=O)n(CC(=O)N4CCC(F)C4)ccc32)nn1 (centres unmarked) [Example 267, 3-(3-chloro-4-fluorophenyl)-5-(2-(3-fluoropyrrolidin-1-yl)-2-oxoethyl)-1-(1-methyl-1H-1,2,3-triazol-4-yl)-1H-pyrrolo[3,2-c]pyridin-4(5H)-one]	27
COC1(C)CN(C(=O)Cn2ccc3scc(-c4ccc(F)c(C(F)(F)F)c4)c3c2=O)C1 [Example 64, 3-(4-fluoro-3-(trifluoromethyl)phen-yl)-5-(2-(3-methoxy-3-methylazetidin-1-yl)-2-oxoethyl)thieno[3,2-c]pyridin-4(5H)-one]	22
C/C(=N/O)c1cn(CC(=O)N2CCC(F)C2)c(=O)c2c(-c3ccc(F)c(C(F)(F)F)c3)csc12 (centres unmarked) [Example 135, (Z)-3-(4-fluoro-3-(trifluoromethyl)phenyl)-5-(2-(3-fluoropyrrolidin-1-yl)-2-oxoethyl)-7-(1-(hydroxyimino)ethyl)thieno[3,2-c]pyridin-4(5H)-one]	11
CCn1cc(-c2ccc(F)c(Cl)c2)c2c(=O)n(CC(=O)N3CCCC3)cnc21 [Example 160, 5-(3-chloro-4-fluorophenyl)-7-ethyl-3-(2-oxo-2-(pyrrolidin-1-yl)ethyl)-3H-pyrrolo[2,3-d]pyrimidin-4(7H)-one]	42
N=C(N)c1cn(CC(=O)N2CCCC2)c(=O)c2c(-c3ccc(F)c(C(F)(F)F)c3)csc12 [Example 113, 3-(4-fluoro-3-(trifluoromethyl)phenyl)-4-oxo-5-(2-oxo-2-(pyrrolidin-1-yl)ethyl)-4,5-dihydrothieno[3,2-c]pyridine-7-carboximidamide]	47
Cn1cc(-n2cc(-c3ccc(Cl)c(Cl)c3)c3c(=O)n(CC(=O)N4CCC(F)C4)ccc32)cn1 (centres unmarked) [Example 283, 3-(3,4-dichlorophenyl)-5-(2-(3-fluoropyrrolidin-1-yl)-2-oxoethyl)-1-(1-methyl-1H-pyrazol-4-yl)-1H-pyrrolo[3,2-c]pyridin-4(5H)-one]	82
O=C(Cn1ccc2scc(-c3ccc(F)c(Cl)c3)c2c1=O)N1CC(F)(C2CC2)C1 [Example 44, 3-(3-chloro-4-fluorophenyl)-5-(2-(3-cyclopropyl-3-fluoroazetidin-1-yl)-2-oxoethyl)thieno[3,2-c]pyridin-4(5H)-one]	63
O=C(Cn1ccc2c(c(-c3ccc(F)c(Cl)c3)cn2C2CC2)c1=O)N1CCC(F)C1 (centres unmarked) [Example 232, 3-(3-chloro-4-fluorophenyl)-1-cyclopropyl-5-(2-(3-fluoropyrrolidin-1-yl)-2-oxoethyl)-1H-pyrrolo[3,2-c]pyridin-4(5H)-one]	66
Cc1cn(CC(=O)N2CCCC2)c(=O)c2c(-c3ccc(F)c(C(F)(F)F)c3)csc12 [Example 107, 3-[4-fluoro-3-(trifluoromethyl)phenyl]-7-methyl-5-[2-oxo-2-(pyrrolidin-1-yl)ethyl]-4H,5H-thieno[3,2-c]pyridin-4-one]	63
Cn1cc(-c2ccc(Cl)c(F)c2)c2c(=O)n(CC(=O)N3CC(F)(F)C3)cnc21 [Example 170, 5-(4-chloro-3-fluorophenyl)-3-(2-(3,3-difluoroazetidin-1-yl)-2-oxoethyl)-7-methyl-3H-pyrrolo[2,3-d]pyrimidin-4(7H)-one]	18
CC1(F)CN(C(=O)Cn2ccc3scc(-c4cncc(Cl)n4)c3c2=O)C1 [Example 145, 3-(6-chloropyrazin-2-yl)-5-(2-(3-fluoro-3-methylazetidin-1-yl)-2-oxoethyl)thieno[3,2-c]pyridin-4(5H)-one]	3
CCn1cc(-c2ccc(Cl)c(C(F)(F)F)c2)c2c(=O)n(CC(=O)N3CC(F)(F)C3)cnc21 [Example 169]	57

Continued, values first:

Response Recovered (%)	Compound
40	O=C(Cn1ccn2c(C3CC3)nc(-c3ccc(F)c(C(F)(F)F)c3)c2c1=O)N1CCC(F)C1 (centres unmarked) [Example 434, 3-cyclopropyl-1-(4-fluoro-3-(trifluoromethyl)phenyl)-7-(2-(3-fluoropyrrolidin-1-yl)-2-oxoethyl)imidazo[1,5-a]pyrazin-8(7H)-one]
38	Cc1cn(CC(=O)N2CCC(F)C2)c(=O)c2c(-c3ccc(F)c(C(F)(F)F)c3)cc(Br)n12 (centres unmarked) [Example 412, 6-bromo-8-(4-fluoro-3-(trifluoromethyl)phenyl)-2-(2-(3-fluoropyrrolidin-1-yl)-2-oxoethyl)-4-methylpyrrolo[1,2-a]pyrazin-1(2H)-one]
1	O=C(Cn1cnc2csc(-c3ccc(Cl)cc3)c2c1=O)N1CCC(F)(F)CC1 [Example 353, 5-(4-chlorophenyl)-3-(2-(4,4-difluoropiperidin-1-yl)-2-oxoethyl)thieno[3,4-d]pyrimidin-4(3H)one]
120	Cc1cc(-c2cn(C3CC3)c3ccn(CC(=O)N4CC(C)(F)C4)c(=O)c23)ccc1F [Example 290, 1-cyclopropyl-5-(2-(3-fluoro-3-methylazetidin-1-yl)-2-oxoethyl)-3-(4-fluoro-3-methylphenyl)-1H-pyrrolo[3,2-c]pyridin-4(5H)-one]
37	O=C(Cn1ccc2cccc(-c3ccc(Cl)c(C(F)(F)F)c3)c2c1=O)N1CCCC1 [Example 300, 8-(4-chloro-3-(trifluoromethyl)phenyl)-2-(2-oxo-2-(pyrrolidin-1-yl)ethyl)isoquinolin-1(2H)-one]
35	O=C(Cn1cnc2csc(-c3ccc(F)c(Cl)c3)c2c1=O)N1CCCC1 [Example 359, 5-(3-chloro-4-fluorophenyl)-3-(2-oxo-2-(pyrrolidin-1-yl)ethyl)thieno[3,4-d]pyrimidin-4(3H)-one]
4	O=C(Cn1ncc2scc(-c3ccc(Cl)c(F)c3)c2c1=O)N1CCC(F)C1 (centres unmarked) [Example 342, 3-(4-chloro-3-fluorophenyl)-5-(2-(3-fluoropyrrolidin-1-yl)-2-oxoethyl)thieno[2,3-d]pyridazin-4(5H)-one]
0	O=C(Cn1cnc2csc(-c3ccc(Cl)cc3)c2c1=O)NC1CC1 [Example 346, 2-(5-(4-chlorophenyl)-4-oxothieno[3,4-d]pyrimidin-3(4H)-yl)-N-cyclopropylacetamide]
15	O=C(Cn1ncc2scc(-c3ccc(Cl)c(Cl)c3)c2c1=O)N1CCCC1 [Example 338, 3-(3,4-dichlorophenyl)-5-(2-oxo-2-(pyrrolidin-1-yl)ethyl)thieno[2,3-d]pyridazin-4(5H)-one]
